Where a name gives a salt, the structure may show the parent alone.
Assay: Solubility determination of irinotecan hydrochloride Form c in comparison with Form b (excess solid shaken at room temperature, HPLC assay)
Type: physicochemical

Structure (SMILES): CCc1c2c(nc3ccc(OC(=O)N4CCC(N5CCCCC5)CC4)cc13)-c1cc3c(c(=O)n1C2)COC(=O)[C@]3(O)CC [Form b, (S)-4,11-Diethyl-3,4,12,14-tetrahydro-4-hydroxy-3,14-dioxo-1H-pyrano[3′,4′:6,7]-indolizino[1,2-b]quinolin-9-yl[1,4′-bipiperidine]-1-carboxylate hydrochloride]
- Irinotecan hydrochloride concentration (a = deionized water, 15 MIN): 11.03 mg/mL
- Irinotecan hydrochloride concentration (a = deionized water, 30 MIN): 12.10 mg/mL
- Irinotecan hydrochloride concentration (a = deionized water, 60 MIN): 12.12 mg/mL
- Irinotecan hydrochloride concentration (a = deionized water, 120 MIN): 11.80 mg/mL
- Irinotecan hydrochloride concentration (b = pH 1.2 buffer, 15 MIN): 0.45 mg/mL
- Irinotecan hydrochloride concentration (b = pH 1.2 buffer, 30 MIN): 0.42 mg/mL
- Irinotecan hydrochloride concentration (b = pH 1.2 buffer, 60 MIN): 0.44 mg/mL
- Irinotecan hydrochloride concentration (b = pH 1.2 buffer, 120 MIN): 0.40 mg/mL
- Irinotecan hydrochloride concentration (c = lactic acid pH 3.5, 15 MIN): 10.27 mg/mL
- Irinotecan hydrochloride concentration (c = lactic acid pH 3.5, 24 HOURS): 11.06 mg/mL
- Irinotecan hydrochloride concentration (c = lactic acid pH 3.5, 30 MIN): 10.38 mg/mL
- Irinotecan hydrochloride concentration (c = lactic acid pH 3.5, 60 MIN): 10.17 mg/mL
- Irinotecan hydrochloride concentration (c = lactic acid pH 3.5, 120 MIN): 11.13 mg/mL
